# Results from patent publication US20260138958A1, “SUBSTITUTED N-PHENYLURACILS AND SALTS THEREOF, AND USE THEREOF AS HERBICIDAL ACTIVE SUBSTANCES” (Bayer Aktiengesellschaft, priority 2022, published 2026).
# Legend:
# Format in all cases: in vivo
# [1] = system: Abutilon theophrasti (ABUTH); assay: Post-emergence herbicidal action, greenhouse pot test
# Protocol: (§1) Seeds of monocotyledonous and dicotyledonous weeds and crop plants were placed in sandy loam in plastic or wood-fibre pots, covered with soil and cultivated in a greenhouse under controlled growth conditions. 2 to 3 weeks after sowing, the test plants were treated at the one-leaf stage. The compounds of the invention, formulated in the form of wettable powders (WP) or as emulsion concentrates (EC), were then sprayed onto the green parts of the plants as aqueous suspension or emulsion with addition of 0.5% additive at a water application rate of 600 l/ha (converted). After the test plants had been kept in the greenhouse under optimum growth conditions for about 3 weeks, the activity of the preparations was rated visually in comparison to untreated controls. For example, 100% activity=the plants have died, 0% activity=like control plants.
# [2] = system: Alopecurus myosuroides (ALOMY); assay: as above; settings: Alopecurus myosuroides, 504 h, 20 g/ha, read-out: Post-emergence effect at 20 g/ha against ALOMY in %
# Protocol: as §1
# [3] = system: Amaranthus retroflexus (AMARE); assay: as above; settings: Amaranthus retroflexus, 504 h
# Protocol: as §1
# [4] = system: Bassia scoparia (KCHSC); assay: as above
# Protocol: as §1
# [5] = system: Digitaria sanguinalis (DIGSA); assay: as above
# Protocol: as §1
# [6] = system: Echinochloa crus-galli (ECHCG); assay: as above
# Protocol: as §1
# [7] = system: Lolium rigidum (LOLRI); assay: as above
# Protocol: as §1
# [8] = system: Pharbitis purpurea (PHBPU); assay: as above; settings: Ipomoea purpurea, 504 h
# Protocol: as §1
# [9] = system: Polygonum convolvulus (POLCO); assay: as above
# Protocol: as §1
# [10] = system: Setaria viridis (SETVI); assay: as above
# Protocol: as §1
# [11] = system: Tripleurospermum inodorum (MATIN); assay: as above; settings: Tripleurospermum inodorum, 504 h, 20 g/ha, read-out: Post-emergence effect at 20 g/ha against MATIN in %
# Protocol: as §1
# [12] = system: Veronica persica (VERPE); assay: as above
# Protocol: as §1
# [13] = system: Viola tricolor (VIOTR); assay: as above
# Protocol: as §1
# [14] = system: Triticum aestivum (TRZAS); assay: Post-emergence crop plant compatibility, greenhouse pot test; settings: Triticum aestivum, in vivo
# Protocol: as §1
# The observed effects on selected crop plants are reported here in comparison to the untreated controls (values in %).
smiles,measurement,setting,value
"Cn1c(C(F)(F)F)cc(=O)n(-c2cc(Oc3ccccc3OCC(=O)OCC3CCC3)c(Cl)cc2F)c1=O [I.7-10, Cyclobutylmethyl (2-{2-chloro-4-fluoro-5-[3-methyl-2,6-dioxo-4-(trifluoromethyl)-3,6-dihydropyrimidin-1(2H)-yl]phenoxy}phenoxy)acetate]",Post-emergence effect at 1.25 g/ha against ABUTH in %,[1]; 1.25 g/ha,100%
same,pest or weed control at 5 g/ha,"[1]; Abutilon theophrasti, 504 h, 5 g/ha, read-out: Post-emergence effect at 5 g/ha against ABUTH in %",100%
same,pest or weed control at 20 g/ha,"[1]; Abutilon theophrasti, 504 h, 20 g/ha, read-out: Post-emergence effect at 20 g/ha against ABUTH in %",100%
same,pest or weed control at 20 g/ha,[2],100%
same,pest or weed control at 1.25 g/ha,"[3]; 1.25 g/ha, read-out: Post-emergence effect at 1.25 g/ha against AMARE in %",100%
same,pest or weed control at 5 g/ha,"[3]; 5 g/ha, read-out: Post-emergence effect at 5 g/ha against AMARE in %",100%
same,pest or weed control at 20 g/ha,"[3]; 20 g/ha, read-out: Post-emergence effect at 20 g/ha against AMARE in %",100%
same,Post-emergence effect at 1.25 g/ha against KCHSC in %,[4]; 1.25 g/ha,100%
same,Post-emergence effect at 5 g/ha against KCHSC in %,[4]; 5 g/ha,100%
same,Post-emergence effect at 20 g/ha against KCHSC in %,[4]; 20 g/ha,100%
same,Post-emergence effect at 1.25 g/ha against DIGSA in %,[5]; 1.25 g/ha,80%
same,Post-emergence effect at 5 g/ha against DIGSA in %,[5]; 5 g/ha,100%
same,Post-emergence effect at 20 g/ha against DIGSA in %,[5]; 20 g/ha,100%
same,Post-emergence effect at 1.25 g/ha against ECHCG in %,[6]; 1.25 g/ha,100%
same,Post-emergence effect at 5 g/ha against ECHCG in %,[6]; 5 g/ha,100%
same,pest or weed control at 20 g/ha,"[6]; Echinochloa crus-galli, 504 h, 20 g/ha, read-out: Post-emergence effect at 20 g/ha against ECHCG in %",100%
same,Post-emergence effect at 20 g/ha against LOLRI in %,[7],100%
same,pest or weed control at 5 g/ha,"[8]; 5 g/ha, read-out: Post-emergence effect at 5 g/ha against PHBPU in %",100%
same,pest or weed control at 20 g/ha,"[8]; 20 g/ha, read-out: Post-emergence effect at 20 g/ha against PHBPU in %",100%
same,Post-emergence effect at 1.25 g/ha against POLCO in %,[9]; 1.25 g/ha,100%
same,pest or weed control at 5 g/ha,"[9]; Fallopia convolvulus, 504 h, 5 g/ha, read-out: Post-emergence effect at 5 g/ha against POLCO in %",100%
same,pest or weed control at 20 g/ha,"[9]; Fallopia convolvulus, 504 h, 20 g/ha, read-out: Post-emergence effect at 20 g/ha against POLCO in %",100%
same,Post-emergence effect at 1.25 g/ha against SETVI in %,[10]; 1.25 g/ha,100%
same,pest or weed control at 5 g/ha,"[10]; Setaria viridis, 504 h, 5 g/ha, read-out: Post-emergence effect at 5 g/ha against SETVI in %",100%
same,pest or weed control at 20 g/ha,"[10]; Setaria viridis, 504 h, 20 g/ha, read-out: Post-emergence effect at 20 g/ha against SETVI in %",100%
same,pest or weed control at 20 g/ha,[11],100%
same,Post-emergence effect at 1.25 g/ha against VERPE in %,[12]; 1.25 g/ha,100%
same,pest or weed control at 5 g/ha,"[12]; Veronica persica, 504 h, 5 g/ha, read-out: Post-emergence effect at 5 g/ha against VERPE in %",100%
same,pest or weed control at 20 g/ha,"[12]; Veronica persica, 504 h, 20 g/ha, read-out: Post-emergence effect at 20 g/ha against VERPE in %",100%
same,Post-emergence effect at 1.25 g/ha against VIOTR in %,[13]; 1.25 g/ha,100%
same,Post-emergence effect at 5 g/ha against VIOTR in %,[13]; 5 g/ha,100%
same,pest or weed control at 20 g/ha,"[13]; Viola tricolor, 504 h, 20 g/ha, read-out: Post-emergence effect at 20 g/ha against VIOTR in %",100%
same,Post-emergence effect at 1.25 g/ha against TRZAS in %,[14],20%
